Test results as given in US9669003B2, “Use of flavone and flavanone derivatives in preparation of sedative and hypnotic drugs” (priority 2012, dated 2017).
Marks after values point to notes of the source that are not given here.

Tests used:
Type in all cases: in vivo
Kunming mice [1] = test: Influence on autonomic activity of normal mice (ZIL-2 mice autonomic activity meter, counts within 10 min); details: intragastric, x ± s, n = 10; for Times of activities in 1 h after drug administration/10 min: 1 h after administration; for Times of activities in 2 h after drug administration/10 min: 2 h after administration; for Times of activities in 24 h after drug administration/10 min: 24 h after administration
Outline: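 Kunming mice (10 per group, half each sex) were dosed at 25, 50 or 100 mg/kg in 0.5% CMC-Na. Spontaneous activity counts over 10 min were recorded at 1 h, 2 h and 24 h post-dose. Groups were compared by ANOVA with Dunnett's test after Levene's check.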

Kunming mice [2] = test: Influence on hypnosis effect with pentobarbital sodium doses below the threshold (25 mg/kg i.p.); details: pentobarbital sodium 25 mg/kg i.p. 60 min later, sleep observed in 30 min, n = 10
Outline: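 Kunming mice (10 per group, half female) given single oral doses of 25, 50 or 100 mg/kg in 0.5% CMC-Na; 60 min later pentobarbital sodium 25 mg/kg i.p. Sleep (righting reflex lost >1 min) scored within 30 min as percentage asleep, χ2 test.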

Kunming mice [3] = test: Influence on hypnosis effect with pentobarbital sodium doses at the threshold (50 mg/kg i.p.); details: pentobarbital sodium 50 mg/kg i.p. 60 min later, x ± s, n = 10
Outline: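 Kunming mice (10/group, half each sex) received compound in 0.5% CMC-Na intragastrically at 25, 50 or 100 mg/kg; 60 min later given 0.3% sodium pentobarbital 50 mg/kg i.p. Sleep latency and duration recorded by loss of righting reflex over 1 min; ANOVA and χ2 for sleep incidence.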

[4] = test drug 25 mg/kg intragastric single dose
[5] = test drug 50 mg/kg intragastric single dose
[6] = test drug 100 mg/kg intragastric single dose
[7] = 25 mg/kg intragastric single dose
[8] = 50 mg/kg intragastric single dose
[9] = 100 mg/kg intragastric single dose

Row | SMILES | Times of activities in 1 h after drug administration/10 min (Kunming mice [1]; 25 mg/kg) | Times of activities in 2 h after drug administration/10 min (Kunming mice [1]; 25 mg/kg) | Times of activities in 24 h after drug administration/10 min (Kunming mice [1]; 25 mg/kg) | Times of activities in 1 h after drug administration/10 min (Kunming mice [1]; 50 mg/kg) | Times of activities in 2 h after drug administration/10 min (Kunming mice [1]; 50 mg/kg) | Times of activities in 24 h after drug administration/10 min (Kunming mice [1]; 50 mg/kg) | Times of activities in 1 h after drug administration/10 min (Kunming mice [1]; 100 mg/kg) | Times of activities in 2 h after drug administration/10 min (Kunming mice [1]; 100 mg/kg) | Times of activities in 24 h after drug administration/10 min (Kunming mice [1]; 100 mg/kg) | Number of sleeping animals (Kunming mice [2]; [4]) | rate of sleeping (%) (Kunming mice [2]; [4]) | Number of sleeping animals (Kunming mice [2]; [5]) | rate of sleeping (%) (Kunming mice [2]; [5]) | Number of sleeping animals (Kunming mice [2]; [6]) | rate of sleeping (%) (Kunming mice [2]; [6]) | duration of sleep (Kunming mice [3]; [7]) [min] | time to sleep (Kunming mice [3]; [7]) [min] | duration of sleep (Kunming mice [3]; [8]) [min] | time to sleep (Kunming mice [3]; [8]) [min] | duration of sleep (Kunming mice [3]; [9]) [min] | also measured
1 | C=Cc1cc(C(N)=O)cc2oc(-c3ccc(N)c(C4CCSC4)c3)cc(=O)c12 (stereo not drawn) [Example 38] | 312.9 ± 40.6 /10 min | 296.2 ± 34.6 /10 min | 268.9 ± 82.8 /10 min | 259.2 ± 54.6 /10 min | 257.1 ± 57.2 /10 min | 279.7 ± 76.5 /10 min | 182.7 ± 41.3 /10 min | 165.4 ± 56.2 /10 min | 324.7 ± 80.9 /10 min | 6 | 60** % | 8 | 80*** % | 9 | 90*** % | 29.67 ± 21.25 | 4.92 ± 2.48 | 36.68 ± 12.30 | 4.67 ± 1.55 | 52.95 ± 20.05 | time to sleep (Kunming mice [3]; [9]): 3.98 ± 1.27 min
2 | CC=Cc1cc(C(=O)O)c2c(=O)cc(-c3cc(C#N)c(F)c(C(=O)O)c3)oc2c1 [Example 22] | 320.3 ± 54.3 /10 min | 291.3 ± 42.0 /10 min | 301.3 ± 76.6 /10 min | 299.4 ± 42.7 /10 min | 255.3 ± 41.3 /10 min | 302.6 ± 91.8 /10 min | 281.5 ± 48.7 /10 min | 225.6 ± 45.3 /10 min | 315.4 ± 78.2 /10 min | 6 | 60** % | 7 | 70** % | 9 | 90*** % | 30.12 ± 20.60 | 4.79 ± 2.43 | 37.78 ± 14.02 | 4.68 ± 1.59 | 52.57 ± 20.74 | time to sleep (Kunming mice [3]; [9]): 3.88 ± 1.18 min
3 | COc1ccc(C2CC(=O)c3c(OC)c(OC)c(OC)c(OC)c3O2)cc1 (stereo not drawn) [Example 47, 5,6,7,8,4′-penta methoxyl-flavanone] | 328.6 ± 49.7 /10 min | 312.7 ± 56.1 /10 min | 315.1 ± 85.4 /10 min | 280.7 ± 61.3 /10 min | 278.6 ± 47.5 /10 min | 310.5 ± 75.3 /10 min | 237.2 ± 35.6 /10 min | 250.3 ± 46.2 /10 min | 307.1 ± 82.3 /10 min | 4 | 40* % | 7 | 70** % | 8 | 80*** % | 39.86 ± 16.75 | 4.45 ± 1.43 | 43.26 ± 20.65 | 3.72 ± 1.65 | 59.78 ± 19.65 | time to sleep (Kunming mice [3]; [9]): 3.18 ± 1.54 min
4 | COc1ccc(-c2cc(=O)c3cc(OC)c(OC)c(OC)c3o2)cc1OC [Example 27] | 291.3 ± 52.1 /10 min | 282.2 ± 41.5 /10 min | 293.6 ± 82.9 /10 min | 169.6 ± 51.3 /10 min | 193.2 ± 56.4 /10 min | 295.7 ± 92.3 /10 min | 124.2 ± 39.4 /10 min | 138.9 ± 48.9 /10 min | 278.6 ± 92.7 /10 min | 5 | 50** % | 6 | 60** % | 7 | 70** % | 31.32 ± 22.99 | 4.88 ± 1.89 | 60.34 ± 16.90 | 4.15 ± 1.65 | 62.15 ± 33.37 | time to sleep (Kunming mice [3]; [9]): 3.73 ± 1.47 min
5 | CC=Cc1cc(C(=O)O)c2c(=O)cc(-c3ccc(C#N)c(C(=O)O)c3)oc2c1 [Example 40] | 291.4 ± 51.5 /10 min | 276.0 ± 48.7 /10 min | 311.2 ± 79.9 /10 min | 245.7 ± 44.5 /10 min | 223.6 ± 43.8 /10 min | 288.9 ± 68.9 /10 min | 145.7 ± 39.8 /10 min | 169.8 ± 40.5 /10 min | 301.5 ± 91.8 /10 min | 4 | 40* % | 6 | 60** % | 7 | 70** % | 21.71 ± 26.77 | 5.32 ± 2.47 | 27.68 ± 27.86 | 5.13 ± 2.64 | 61.35 ± 45.27 | time to sleep (Kunming mice [3]; [9]): 4.92 ± 1.26 min
6 | COc1ccc(-c2cc(=O)c3c(O)cc(OC)c(OC)c3o2)cc1O [Example 2, 5,3′-dihydroxyl-7,8,4′-trimethoxyl-flavone] | 320.1 ± 54.7 /10 min | 293.5 ± 40.8 /10 min | 302.7 ± 77.5 /10 min | 295.3 ± 41.8 /10 min | 254.2 ± 41.1 /10 min | 306.2 ± 90.6 /10 min | 281.3 ± 47.6 /10 min | 223.5 ± 45.7 /10 min | 311.4 ± 80.3 /10 min | 5 | 50** % | 6 | 60** % | 7 | 70** % | 35.56 ± 15.89 | 6.61 ± 2.22 | 39.23 ± 23.45 | 4.95 ± 2.23 | 53.55 ± 22.04 | time to sleep (Kunming mice [3]; [9]): 3.92 ± 1.12 min
